Reference: ChEMBL document CHEMBL1909046, “DrugMatrix in vitro pharmacology data”

Assays:
Glycine receptor = Glycine receptor (Rattus norvegicus, UniProt P22771+P24524+P07727+P20781); format: cell membranes, Wistar, Spinal cord, Membrane
B2 bradykinin receptor = molecular target: T1, B2 bradykinin receptor (Homo sapiens, UniProt P30411); format: cell membranes, Membrane; settings: chem-1
T1 sequence (P30411 whole entry): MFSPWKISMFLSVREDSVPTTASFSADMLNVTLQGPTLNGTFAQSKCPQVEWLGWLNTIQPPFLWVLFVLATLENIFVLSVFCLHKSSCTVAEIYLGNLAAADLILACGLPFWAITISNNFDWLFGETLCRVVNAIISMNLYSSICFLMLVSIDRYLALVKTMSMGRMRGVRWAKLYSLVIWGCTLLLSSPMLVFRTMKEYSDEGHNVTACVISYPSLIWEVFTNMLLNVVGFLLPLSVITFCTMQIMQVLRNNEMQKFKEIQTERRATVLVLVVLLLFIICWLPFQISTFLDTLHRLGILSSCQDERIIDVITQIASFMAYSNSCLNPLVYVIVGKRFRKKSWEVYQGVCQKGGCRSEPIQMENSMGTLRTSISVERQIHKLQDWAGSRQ

Cytochrome P450 2C9 [1] = molecular target: T2, Cytochrome P450 2C9 (Homo sapiens, UniProt P11712); settings: bti-tn-5b1-4
T2 sequence (P11712 whole entry): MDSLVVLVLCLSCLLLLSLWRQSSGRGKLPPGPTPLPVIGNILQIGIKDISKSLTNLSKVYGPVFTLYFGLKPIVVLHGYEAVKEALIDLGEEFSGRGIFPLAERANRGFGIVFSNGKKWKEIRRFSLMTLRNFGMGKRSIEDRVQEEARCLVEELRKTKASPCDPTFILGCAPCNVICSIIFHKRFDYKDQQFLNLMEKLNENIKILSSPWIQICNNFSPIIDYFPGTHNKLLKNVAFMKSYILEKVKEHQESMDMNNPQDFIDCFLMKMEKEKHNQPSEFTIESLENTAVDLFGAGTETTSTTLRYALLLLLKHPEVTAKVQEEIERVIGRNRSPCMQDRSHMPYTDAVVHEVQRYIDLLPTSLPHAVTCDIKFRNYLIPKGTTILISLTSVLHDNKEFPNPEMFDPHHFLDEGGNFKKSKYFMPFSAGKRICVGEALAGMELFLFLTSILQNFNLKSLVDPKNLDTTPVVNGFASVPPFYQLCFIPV

Cytochrome P450 2D6 = Cytochrome P450 2D6 (Homo sapiens, UniProt P10635)
Cytochrome P450 2D6, sequence (P10635 whole entry): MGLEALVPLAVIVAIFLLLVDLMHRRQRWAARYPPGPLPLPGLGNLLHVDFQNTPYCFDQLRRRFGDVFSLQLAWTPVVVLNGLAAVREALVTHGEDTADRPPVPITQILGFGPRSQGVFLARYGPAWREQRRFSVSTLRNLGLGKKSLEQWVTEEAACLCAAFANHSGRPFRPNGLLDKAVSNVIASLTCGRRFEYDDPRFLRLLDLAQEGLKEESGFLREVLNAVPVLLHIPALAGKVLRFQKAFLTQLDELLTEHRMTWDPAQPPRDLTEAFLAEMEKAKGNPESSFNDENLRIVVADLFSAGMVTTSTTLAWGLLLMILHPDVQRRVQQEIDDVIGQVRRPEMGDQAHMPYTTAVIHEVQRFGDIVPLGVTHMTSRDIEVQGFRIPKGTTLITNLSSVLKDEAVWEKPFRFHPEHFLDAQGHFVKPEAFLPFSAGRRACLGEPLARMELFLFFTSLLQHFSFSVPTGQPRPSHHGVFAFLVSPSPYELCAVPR

[2] = molecular target: T3, Cysteinyl leukotriene receptor 1 (Homo sapiens, UniProt Q9Y271); format: cell membranes, CHO-K1, Membrane
T3 sequence (Q9Y271 whole entry): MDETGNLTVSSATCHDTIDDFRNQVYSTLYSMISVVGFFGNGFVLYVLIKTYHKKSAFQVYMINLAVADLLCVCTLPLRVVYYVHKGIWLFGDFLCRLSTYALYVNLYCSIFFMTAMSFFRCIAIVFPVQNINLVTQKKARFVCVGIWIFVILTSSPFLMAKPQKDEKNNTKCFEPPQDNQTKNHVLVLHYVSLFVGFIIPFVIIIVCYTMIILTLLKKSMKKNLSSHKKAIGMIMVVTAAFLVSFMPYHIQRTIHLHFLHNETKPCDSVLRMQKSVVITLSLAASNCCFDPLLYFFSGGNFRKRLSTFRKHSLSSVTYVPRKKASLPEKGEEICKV

Cytochrome P450 1A2 = molecular target: T4, Cytochrome P450 1A2 (Homo sapiens, UniProt P05177)
T4 sequence (P05177 whole entry): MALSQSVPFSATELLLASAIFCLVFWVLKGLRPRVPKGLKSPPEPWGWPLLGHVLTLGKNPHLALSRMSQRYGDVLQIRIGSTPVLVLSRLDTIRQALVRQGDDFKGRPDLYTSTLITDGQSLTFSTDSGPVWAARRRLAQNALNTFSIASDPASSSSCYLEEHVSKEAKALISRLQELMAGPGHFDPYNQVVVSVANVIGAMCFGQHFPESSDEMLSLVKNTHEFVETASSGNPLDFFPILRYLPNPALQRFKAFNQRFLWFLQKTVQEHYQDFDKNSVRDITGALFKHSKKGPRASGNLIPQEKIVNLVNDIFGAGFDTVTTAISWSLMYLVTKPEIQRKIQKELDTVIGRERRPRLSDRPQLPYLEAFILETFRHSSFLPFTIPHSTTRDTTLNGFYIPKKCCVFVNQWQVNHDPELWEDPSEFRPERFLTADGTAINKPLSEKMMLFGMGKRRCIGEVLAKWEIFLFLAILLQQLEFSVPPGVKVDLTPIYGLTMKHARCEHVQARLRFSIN

Androgen receptor [3] = molecular target: T5, Androgen receptor (Rattus norvegicus, UniProt P15207)
T5 sequence (P15207 whole entry): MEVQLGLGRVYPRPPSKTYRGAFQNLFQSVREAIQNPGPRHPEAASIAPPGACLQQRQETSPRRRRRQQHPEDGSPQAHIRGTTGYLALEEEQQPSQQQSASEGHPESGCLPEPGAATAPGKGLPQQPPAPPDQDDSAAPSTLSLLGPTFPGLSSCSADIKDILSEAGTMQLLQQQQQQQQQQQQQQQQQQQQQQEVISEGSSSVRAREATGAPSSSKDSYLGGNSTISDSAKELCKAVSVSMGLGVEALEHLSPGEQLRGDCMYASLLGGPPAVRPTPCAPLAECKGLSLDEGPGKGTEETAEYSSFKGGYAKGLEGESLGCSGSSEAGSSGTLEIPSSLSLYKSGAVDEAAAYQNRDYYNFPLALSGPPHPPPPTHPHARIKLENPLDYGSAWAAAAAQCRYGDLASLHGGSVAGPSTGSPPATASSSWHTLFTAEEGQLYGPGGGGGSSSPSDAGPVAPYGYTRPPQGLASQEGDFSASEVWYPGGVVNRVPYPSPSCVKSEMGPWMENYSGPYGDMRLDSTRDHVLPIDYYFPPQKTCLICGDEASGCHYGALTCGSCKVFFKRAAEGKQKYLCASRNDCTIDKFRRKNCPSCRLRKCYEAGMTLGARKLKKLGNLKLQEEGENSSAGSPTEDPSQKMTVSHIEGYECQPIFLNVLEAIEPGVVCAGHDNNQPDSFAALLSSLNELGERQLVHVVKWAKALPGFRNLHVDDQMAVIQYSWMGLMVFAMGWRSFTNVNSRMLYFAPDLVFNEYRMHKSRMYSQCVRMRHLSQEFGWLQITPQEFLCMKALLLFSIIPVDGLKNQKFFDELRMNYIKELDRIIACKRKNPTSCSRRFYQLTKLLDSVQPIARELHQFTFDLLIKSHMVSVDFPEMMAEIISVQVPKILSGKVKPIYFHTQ

Cytochrome P450 2C9 [4] = molecular target: T2, Cytochrome P450 2C9
Androgen receptor [5] = molecular target: T5, Androgen receptor; remark: listed apart in the source
Cytochrome P450 2C19 = Cytochrome P450 2C19 (Homo sapiens, UniProt P33261)
Cytochrome P450 2C19, sequence (P33261 whole entry): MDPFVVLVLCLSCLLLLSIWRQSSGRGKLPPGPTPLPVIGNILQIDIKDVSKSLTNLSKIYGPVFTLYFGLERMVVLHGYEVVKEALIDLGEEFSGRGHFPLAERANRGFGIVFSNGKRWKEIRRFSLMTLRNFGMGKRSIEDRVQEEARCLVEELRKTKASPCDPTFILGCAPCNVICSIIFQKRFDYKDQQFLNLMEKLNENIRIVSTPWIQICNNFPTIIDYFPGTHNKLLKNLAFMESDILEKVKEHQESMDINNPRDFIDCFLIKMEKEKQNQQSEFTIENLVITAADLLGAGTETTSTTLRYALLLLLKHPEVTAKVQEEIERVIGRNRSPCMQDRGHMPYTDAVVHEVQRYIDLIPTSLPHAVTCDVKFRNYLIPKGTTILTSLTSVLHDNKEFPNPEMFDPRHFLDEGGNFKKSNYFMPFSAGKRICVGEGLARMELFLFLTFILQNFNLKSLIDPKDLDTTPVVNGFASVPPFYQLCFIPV
Also: in other assays of this panel Not Active means under 50% inhibition at 10 µM.

## CC(N)Cc1c[nH]c2ccc(OCc3cccs3)cc12 (stereo not given) [BW-723C86]
Glycine receptor
  IC50: Not Active
B2 bradykinin receptor
  IC50: Not Active
Cytochrome P450 2C9 [1]
  IC50: Not Active
  Ki: Not Active
Cytochrome P450 2D6
  IC50: 2.77 µM
[2]; cho-k1
  IC50: Not Active
Cytochrome P450 1A2
  IC50: 0.874 µM
Androgen receptor [3]
  IC50: Not Active

## CN(CCOc1ccc(C[C@H](Nc2ccccc2C(=O)c2ccccc2)C(=O)O)cc1)c1ccccn1
Glycine receptor
  IC50: Not Active
B2 bradykinin receptor
  IC50: Not Active
Cytochrome P450 2C9 [4]
  IC50: 4 µM
[2]; read-out: IC50
  IC50: 10.9 µM
[2]; read-out: Ki
  Ki: 5.45 µM
Androgen receptor [3]
  IC50: Not Active

## CC(C)(c1ccc(O)cc1)c1ccc(O)cc1 [BISPHENOL A]
Androgen receptor [5]
  IC50: 33.8 µM
  Ki: 22.5 µM
Glycine receptor
  IC50: Not Active
B2 bradykinin receptor
  IC50: Not Active
Cytochrome P450 2C9 [1]
  IC50: Not Active
  Ki: Not Active
[2]; cho-k1
  IC50: Not Active

## COc1cc([C@@H]2c3cc4c(cc3[C@H](O)[C@H]3COC(=O)[C@H]23)OCO4)cc(OC)c1OC [PODOFILOX]
Glycine receptor
  IC50: Not Active
B2 bradykinin receptor
  IC50: Not Active
Cytochrome P450 2C9 [4]
  IC50: 4 µM
Cytochrome P450 2C19
  IC50: 5 µM
[2]; cho-k1
  IC50: Not Active
Androgen receptor [3]
  IC50: Not Active

## c1ccc(Cn2ccnc2)cc1
Glycine receptor
  IC50: Not Active
B2 bradykinin receptor
  IC50: Not Active
Cytochrome P450 2C9 [1]
  IC50: Not Active
  Ki: Not Active
Cytochrome P450 2D6
  IC50: 2 µM
[2]; cho-k1
  IC50: Not Active
Cytochrome P450 1A2
  IC50: 0.2 µM
Androgen receptor [3]
  IC50: Not Active
